# Source: patent US7799738B2, “Insecticidal 2-acylaminothiazole-4-carboxamides” (Bayer CropScience AG, priority 2005, dated 2010)
# System: Spodoptera litura
# Assay: Test for embryos of Spodoptera litura (sweet potato leaf dip)
# Type: in vivo
# Details: effective ingredient concentration 20 ppm; 3 instar, sweet potato leaves immersed; dead counted after 7 days, 25° C.
# Procedure: Preparation of Sample Drug Solution
# 1 Part by weight of the active compound was mixed with the above-mentioned amount of a solvent containing the above-mentioned amount of emulsifier in order to prepare the formulation of an appropriate active compound, and the mixture was diluted with water to a predetermined concentration.
# The leaves of sweet potato were immersed in a sample drug solution which was diluted with water to a predetermined concentration and charged in a petri dish with a diameter of 9 cm after drying the drug solution. 10 of embryos with 3 instar of Spodoptera litura were dropped thereto, the petri dish was placed in a constant temperature chamber at 25° C., the leaves of sweet potato were additionally added after 2 days and 4 days and the number of dead embryos was examined after 7 days to calculate an insecticidal rate.
# In the present test, the result of 2 petri dishes per one partition was averaged.
row,SMILES,insecticidal rate
1,"Cc1cc(C(F)(C(F)(F)F)C(F)(F)F)cc(C)c1NC(=O)c1csc(NC(=O)c2ccccc2Cl)n1 [compound 34, 2-(2-chlorobenzoyl)amino-N-(2,6-dimethyl-4 heptafluoroisopropylphenyl)-1,3-thiazole-4-carboxamide]",100%
2,"Cc1cc(C(F)(C(F)(F)F)C(F)(F)F)cc(C)c1NC(=O)c1csc(NC(=O)c2cccc(Cl)c2)n1 [compound 67, 2-(3-chlorobenzoyl)amino-N-(2,6-dimethyl-4-heptafluoro-isopropylphenyl)-1,3-thiazole-4-carboxamide]",100%
